{"source": "patent US7598258B2", "about": "“Quinoline derivatives and quinazoline derivatives inhibiting autophosphorylation of macrophage colony stimulating factor receptor” (Kirin Beer Kabushiki Kaisha, priority 2002, dated 2009)", "tested_on": "osteoclast differentiation", "experiment": "Osteoclast differentiation-inducing test by cocultivation of mouse bone marrow cells and osteoblast-like cell line KS483 (TRAP activity)", "assay_type": "cell-based", "conditions": "6 days coculture with 1,25(OH)2VD3, FIG. 2", "method": "Mouse osteoblast-like cell line KS483 ([…] T. et al., Bone, 19, 429-436 (1996), “Subcloning of Three Osteoblastic Cell with Distinct Differentiation Phenotypes from the Mouse Osteoblastic Cell line KS-4”) was cultured in an α-MEM medium containing a 10% fetal calf serum (purchased from GIBCO BRL) until about 90% confluent. The cells were seeded into wells, each containing the same medium containing a 10% fetal calf serum, in a 48 well flat-bottom plate at a density of 2.0×10^3 per well. […] At the same time, the TRAP activity was evaluated by the measurement of enzyme activity using p-nitrophenylphosphate (SIGMA104 phosphatase substrate; SIGMA; hereinafter referred to as “PNP”). […] After stirring, 50 μl of 0.5 N NaOH was further added, and 100 μl of the reaction solution in each well was dispensed in a 96 well flat-bottom plate, and absorbance at 405 nm was then measured with a microplate reader. For each well, TRAP activity was measured by presuming the absorbance in the case of culture without the addition of the test compound and with the addition of only KS483 and mouse bone marrow cells in the presence of 1,25(OH)2VD3 to 100% TRAP activity and the absorbance without the addition of the test compound and the mouse bone marrow cells to 0% TRAP activity. […]", "data": [{"smiles": "COc1cc(Oc2ccnc3cc(OC)c(OC)cc23)ccc1NC(=O)NC(C)c1nccs1", "note": "(stereo not shown) [Example 74, N-{4-[(6,7-Dimethoxy-4-quinolyl)oxy]-2-methoxyphenyl}-N′-[1-(1,3-thiazol-2-yl)ethyl]urea]", "values": [{"measurement": "inhibition of osteoclast differentiation (TRAP activity)", "result": "concentration-dependent inhibition"}]}]}
